A short description of data set [1]: shake-flask lipophilicity (Log P) detection. It counts as physicochemical. The settings on record: for Log P: shake-flask gold standard detection. An excerpt: Besides, the present invention further designs a novel naphthol analogue, [F-18]FEONM, with lipophilicity increased. This is consistent with the concept of the structure design for the present invention. By adding a —C2H4O— functional group to a F-18 end, the lipophilicity of [F-18]FEONM is increased to obtain a potential novel brain imaging agent. The present invention develops the high-pressure isolation and purification to achieve the purpose of purification of [F-18]FEONM without toxic compounds.

Data set [2] relates to P301S/PS19 transgenic mice. The data set is described as follows: brain uptake biodistribution of [F-18]FEONM in P301S/PS19 transgenic mice. Type of data set: in vivo. To be noted: 12~13 month-old P301S/PS19 transgenic mice; product purified through an alumina solid-phase extraction column; FIG. 2.

On to `CC(=C(C#N)C#N)c1ccc2cc(N(C)CC[18F])ccc2c1` [[F-18]FDDNP, reference compound], for which the “Log P” value in data set [1] worked out at 1.93 ± 0.10.
As for `CC(=C(C#N)C#N)c1ccc2cc(N(C)CCOCCF)ccc2c1` [[F-18]FEONM], the “lipophilicity compared with [F-18]FDDNP” value in data set [1] (same shake-flask gold standard detection) was “higher than [F-18]FDDNP”. For the same compound, the “Log P” value in data set [1] was 2.20 ± 0.17. Also, the “brain uptake biodistribution ratios (result in words)” value in data set [2] is “effective to Alzheimer disease stages”.

In general, Log P refers to a log measure of how a compound divides between an organic and an aqueous phase. A lower Log P goes with a more hydrophilic compound.
